Reference: patent publication US20260274894A1, “CYCLIC POLYPEPTIDE COMPOUND AND USE THEREOF” (BIVISION PHARMACEUTICALS, INC., priority 2023, published 2026)
Like-named read-outs stand apart in the source and are kept apart here. Numbered stars: 1 amine (or outer) side, 2 acyl side, 3 side chain; on linkers, the order of the positions; unused ones are H or OH. Bridge positions count the residues as written; N and C are the ends. Square brackets hold non-standard residues; d marks the D form. Side chains are listed from the residue outwards. Peptide text beside a SMILES is read from it. * marks the point of attachment. ξ: configuration not given here. NH(CH2)2O(CH2)2NHDOTA = O=C(O)CN1CCN(CC(=O)O)CCN(CC(=O)NCCOCCN*)CCN(CC(=O)O)CC1; X5 = CCCCCC(=O)N[C@@H](CSCc1cccc(C[*:2])c1)C(=O)N1CCC[C@@H](NC(=O)[*:1])C1; X6 = CCCCCC(=O)N[C@@H](CSCc1cccc(C[*:2])c1)C(=O)C1CCC[C@@H](CC(=O)[*:1])C1; NH(CH2)5NHDOTA = O=C(O)CN1CCN(CC(=O)O)CCN(CC(=O)NCCCCCN*)CCN(CC(=O)O)CC1; DOTA = O=C(O)CN1CCN(CC(=O)O)CCN(CC(=O)*)CCN(CC(=O)O)CC1; Azetidine3carboxylic = O=C(C1CN([*:1])C1)[*:2]; Pyridine(3,5-bisCH2) = c1ncc(C[*:2])cc1C[*:1]; mXylylene = c1cc(C[*:1])cc(C[*:2])c1; Cha = N[C@@H](CC1CCCCC1)C(=O)O; Dab = NCC[C@H](N)C(=O)O; ξQ = NC(=O)CCC(N)C(=O)O; Hexanoyl = CCCCCC(=O)*; AEEA = NCCOCCOCC(=O)O; CO = O=C([*:1])[*:2]; Ahx = NCCCCCC(=O)O; ξP = O=C(O)C1CCCN1; GABA = NCCCC(=O)O; ξC = NC(CS)C(=O)O; NHBu = CCCCN*

Assays:
HT1080 2 # = assay: Therapeutic results of ^177Lu-labeled compound in tumor-bearing mice (tumor volume); type: in vivo, Balb/c Nude mice
Description: The body weight and tumor size were measured.

[1] = Determination of C Log P (n-octanol/water partition, gamma counts); type: physicochemical
Description: Two EP tubes were taken, and 100 μL of saturated n-octanol aqueous solution and 80 µL of pure water were added to each tube, respectively. […] After shaking and mixing for 2 hours, the tubes were centrifuged at room temperature at 2000 rpm/min for 5 minutes. 20 μL was taken from the upper layer (lipid layer) and lower layer (aqueous layer) of each tube, and gamma counts were measured.

FAP protein = target: T1, FAP protein (Homo sapiens, UniProt Q12884); assay: Biacore test of compound affinity to FAP protein; details: Biacore 8K, SA chip, 15° C., 1:1 binding model; read-out: pKD (FAP) (converted)
T1 construct: purchased Sinobiological
T1 sequence (Q12884 1-760): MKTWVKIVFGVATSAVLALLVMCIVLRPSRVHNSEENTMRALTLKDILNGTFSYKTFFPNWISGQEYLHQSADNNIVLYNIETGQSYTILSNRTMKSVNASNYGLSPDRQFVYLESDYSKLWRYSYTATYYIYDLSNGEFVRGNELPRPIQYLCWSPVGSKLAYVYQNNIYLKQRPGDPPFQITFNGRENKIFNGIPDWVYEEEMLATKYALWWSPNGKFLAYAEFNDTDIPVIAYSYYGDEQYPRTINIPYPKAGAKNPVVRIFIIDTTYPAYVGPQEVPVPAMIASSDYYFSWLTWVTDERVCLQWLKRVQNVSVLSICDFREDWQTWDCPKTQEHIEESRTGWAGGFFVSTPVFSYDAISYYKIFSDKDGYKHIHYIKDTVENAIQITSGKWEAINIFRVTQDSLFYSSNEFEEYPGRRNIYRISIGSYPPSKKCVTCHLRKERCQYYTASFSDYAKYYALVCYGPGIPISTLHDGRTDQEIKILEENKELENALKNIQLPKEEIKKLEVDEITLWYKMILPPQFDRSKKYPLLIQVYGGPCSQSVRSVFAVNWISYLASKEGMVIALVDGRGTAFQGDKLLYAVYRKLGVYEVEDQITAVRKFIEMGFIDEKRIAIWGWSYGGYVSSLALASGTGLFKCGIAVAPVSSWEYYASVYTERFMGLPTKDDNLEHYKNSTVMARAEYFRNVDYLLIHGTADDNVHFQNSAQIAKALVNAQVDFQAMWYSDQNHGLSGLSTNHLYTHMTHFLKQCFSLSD
Description: The Biacore 8K (Cytiva) instrument was used to detect ligand binding of the FAP protein (Sinobiological). FAP protein was captured on the SA chip. […] The sensor surface was conditioned by injecting 1M NaCl three consecutive times in 50 mM NaOH. After each ligand injection, additional cleaning was performed using isopropanol in 1M NaCl and 50 mM NaOH (flow path 1 and 2, flow rate of 10 μL/min, injection time of 60 s). […] The analyte was run under the following conditions: analysis temperature of 15° C., analysis step=all set to LMW kinetics; cycle type=single cycle (contact time of 90 s, dissociation time of 1800 s, flow rate of 30 μL/min, flow channels 1 and 2); channel detection=2-1. Data was evaluated using the Biacore Insight Evaluation Software, and the data were fitted to a 1:1 binding model. The Biacore results are shown in Table 2 below: pKD=−Log KD, where KD is the binding affinity of the compound to the FAP protein as measured by Biacore.

CCCCCC(=O)N[C@H]1CSCc2cc(CSCCNC(=O)CN3CCN(CC(=O)O)CCN(CC(=O)O)CCN(CC(=O)O)CC3)cc(c2)CSC[C@@H](C(=O)O)NC(=O)[C@H](Cc2ccccc2)NC(=O)[C@H](CCC(N)=O)NC(=O)[C@H]([C@@H](C)O)NC(=O)[C@@H]2CCCN2C(=O)[C@@H]2CCCN2C1=O [^177Lu-FAP-2286, metal not drawn, reference compound]
Tumor volume (mm^3) (HT1080 2 #; Day 0): 466.80 ± 118.37 mm^3
Tumor volume (mm^3) (HT1080 2 #; Day 2): 630.23 ± 96.79 mm^3
Tumor volume (mm^3) (HT1080 2 #; Day 6): 525.29 ± 100.39 mm^3
Tumor volume (mm^3) (HT1080 2 #; Day 9): 1,041.55 ± 348.07 mm^3
Tumor volume (mm^3) (HT1080 2 #; Day 13): 2,345.02 ± 298.66 mm^3
Tumor volume (mm^3) (HT1080 2 #; Day 16): 3,180.37 ± 697.35 mm^3
logP ([1]; read-out: ClogP): -2.74

CCCCCC(=O)N[C@H]1CSCc2cccc(c2)CSC[C@@H](C(=O)N[C@@H](CCCCNC(=O)COCCOCCNC(=O)CN2CCN(CC(=O)O)CCN(CC(=O)O)CCN(CC(=O)O)CC2)C(=O)O)NC(=O)CNC(=O)[C@H](CC2CCCCC2)NC(=O)[C@H](CCC(N)=O)NC(=O)[C@H]([C@@H](C)O)NC(=O)C2CCCN2C(=O)N[C@@H]2CCCN(C2)C1=O (stereo partly drawn) [^177Lu -JHDC15, metal not drawn] ([ξP]TQ[Cha]GCK([AEEA-DOTA])-OH; linker N-6 via X5)
logP ([1]; read-out: ClogP): -1.6

CCCCCC(=O)N[C@H]1CSCc2cccc(c2)CSC[C@@H](C(=O)N[C@@H](CCCCNC(=O)CCCCCNC(=O)CN2CCN(CC(=O)O)CCN(CC(=O)O)CCN(CC(=O)O)CC2)C(=O)O)NC(=O)[C@H](CC2CCCCC2)NC(=O)C(CCC(N)=O)NC(=O)[C@H]([C@@H](C)O)NC(=O)C2CCCN2C(=O)C[C@@H]2CCCC(C2)C1=O (stereo partly drawn) [^177Lu -JHDC13, metal not drawn] ([ξP]T[ξQ][Cha]CK([Ahx-DOTA])-OH; linker N-5 via X6)
logP [1]: -1.3

CCCCCC(=O)N[C@H]1CCCCn2cc(nn2)CC(C(=O)N[C@@H](CCCCNC(=O)CN2CCN(CC(=O)O)CCN(CC(=O)O)CCN(CC(=O)O)CC2)C(=O)O)NC(=O)[C@H](Cc2ccccc2)NC(=O)[C@H](CCC(N)=O)NC(=O)[C@H]([C@@H](C)O)NC(=O)C2CCCN2C(=O)N[C@@H]2CCCN(C2)C1=O (single isomer, unassigned) [^177Lu -JHDC11, metal not drawn]
logP [1]: -3.65

CCCCCC(=O)N[C@H]1CSCc2cccc(c2)CSC[C@@H](C(=O)N[C@@H](CCC(=O)NCCOCCNC(=O)CN2CCN(CC(=O)O)CCN(CC(=O)O)CCN(CC(=O)O)CC2)C(=O)O)NC(=O)[C@H](Cc2ccccc2)NC(=O)[C@H](CCC(N)=O)NC(=O)[C@H]([C@@H](C)O)NC(=O)[C@@H]2CCCN2C(=O)C2CN(C2)C1=O [^177Lu -JHDC06, metal not drawn] (Hexanoyl-C[Azetidine3carboxylic]PTQFCE(NH(CH2)2O(CH2)2NHDOTA)-OH; linker 1-7 via mXylylene)
logP [1]: -2.69

CCCCNC(=O)N[C@H]1CSCc2cncc(c2)CSC[C@@H](C(=O)N[C@@H](CCC(=O)NCCN2CCN(C(=O)CN3CCN(CC(=O)O)CCN(CC(=O)O)CCN(CC(=O)O)CC3)CC2)C(=O)O)NC(=O)[C@H](CC2CCCCC2)NC(=O)[C@H](CCC(N)=O)NC(=O)[C@H]([C@@H](C)O)NC(=O)[C@@H]2CCCN2C(=O)C2CN(C2)C1=O (single isomer, unassigned) [^177Lu-JHDC46, metal not drawn]
Tumor volume (mm^3) (HT1080 2 #; Day 0): 400.31 ± 78.63 mm^3
Tumor volume (mm^3) (HT1080 2 #; Day 2): 483.08 ± 95.00 mm^3
Tumor volume (mm^3) (HT1080 2 #; Day 6): 203.26 ± 49.63 mm^3
Tumor volume (mm^3) (HT1080 2 #; Day 9): 168.29 ± 33.83 mm^3
Tumor volume (mm^3) (HT1080 2 #; Day 13): 313.94 ± 119.95 mm^3
Tumor volume (mm^3) (HT1080 2 #; Day 16): 686.05 ± 297.66 mm^3

CCCCCC(=O)N[C@H]1CSCc2cccc(c2)CSC[C@@H](C(=O)N[C@@H](CCCCNC(=O)COCCOCCNC(=O)CN2CCN(CC(=O)O)CCN(CC(=O)O)CCN(CC(=O)O)CC2)C(=O)O)NC(=O)[C@H](CC2CCCCC2)NC(=O)[C@H](CCC(N)=O)NC(=O)[C@H]([C@@H](C)O)NC(=O)[C@@H]2CCCN2C(=O)N[C@@H]2CCCN(C2)C1=O [^177Lu -JHDC14, metal not drawn] (PTQ[Cha]CK([AEEA-DOTA])-OH; linker N-5 via X5)
logP [1]: -1.39

CCCCNC(=O)N[C@H]1CSCc2cccc(c2)CSCC(C(=O)N[C@@H](CCNC(=O)CCCNC(=O)CN2CCN(CC(=O)O)CCN(CC(=O)O)CCN(CC(=O)O)CC2)C(=O)O)NC(=O)[C@H](CC2CCCCC2)NC(=O)[C@H](CCC(N)=O)NC(=O)[C@H]([C@@H](C)O)NC(=O)[C@@H]2CCCN2C(=O)C2CN(C2)C1=O (stereo partly drawn) [JHDC55, nBu-urea-[Cys(3MeBn)-hhy39-Pro-Thr-Gln-hhy34-Cys]-DABA-(ABA-DOTA)-OH] ({NHBu-CO}-C[Azetidine3carboxylic]PTQ[Cha][ξC][Dab]([GABA-DOTA])-OH; linker 1-7 via mXylylene)
Kd (FAP protein): < 10 nM

CCCCCC(=O)N[C@H]1CSCc2cccc(c2)CSCC(C(=O)N[C@@H](CCC(=O)NCCOCCNC(=O)CN2CCN(CC(=O)O)CCN(CC(=O)O)CCN(CC(=O)O)CC2)C(=O)O)NC(=O)[C@H](CC2CCCCC2)NC(=O)CNC(=O)[C@H](CCC(N)=O)NC(=O)[C@H]([C@@H](C)O)NC(=O)C2CCCN2C(=O)C2CN(C2)C1=O (stereo partly drawn) [JHDC09, Hex[Cys(3MeBn)-hhy39-Pro-Thr-Gln-Gly-hhy34-Cys]-Glu-(DAPEG2-DOTA)-OH] (Hexanoyl-C[Azetidine3carboxylic][ξP]TQG[Cha][ξC]E(NH(CH2)2O(CH2)2NHDOTA)-OH; linker 1-8 via mXylylene)
Kd (FAP protein): 10 to 100 nM

CCCCCC(=O)N[C@H]1CSCc2cccc(c2)CSCC(C(=O)N[C@@H](CCC(=O)NCCOCCNC(=O)CN2CCN(CC(=O)O)CCN(CC(=O)O)CCN(CC(=O)O)CC2)C(=O)O)NC(=O)CNC(=O)[C@H](CC2CCCCC2)NC(=O)[C@H](CCC(N)=O)NC(=O)[C@H]([C@@H](C)O)NC(=O)C2CCCN2C(=O)C2CN(C2)C1=O (stereo partly drawn) [JHDC17, Hex[Cys(3MeBn)-hhy39-Pro-Thr-Gln-hhy34-Gly-Cys]-Glu-(DAPEG2-DOTA)-OH] (Hexanoyl-C[Azetidine3carboxylic][ξP]TQ[Cha]G[ξC]E(NH(CH2)2O(CH2)2NHDOTA)-OH; linker 1-8 via mXylylene)
Kd (FAP protein): 10 to 100 nM

CCCCNC(=O)N[C@H]1CSCc2cncc(c2)CSCC(C(=O)N[C@@H](CCC(=O)NCCOCCNC(=O)CN2CCN(CC(=O)O)CCN(CC(=O)O)CCN(CC(=O)O)CC2)C(=O)O)NC(=O)[C@H](Cc2ccccc2)NC(=O)[C@H](CCC(N)=O)NC(=O)[C@H]([C@@H](C)O)NC(=O)C2CCCN2C(=O)C2CN(C2)C1=O (stereo partly drawn) [JHDC33, nBu-urea-[Cys(3MePy)-hhy39-Pro-Thr-Gln-Phe-Cys]-Glu-(DAPEG2-DOTA)-OH] ({NHBu-CO}-C[Azetidine3carboxylic][ξP]TQF[ξC]E(NH(CH2)2O(CH2)2NHDOTA)-OH; linker 1-7 via Pyridine(3,5-bisCH2))
Kd (FAP protein): 10 to 100 nM

CCCCNC(=O)N[C@H]1CSCc2cccc(c2)CSCC(C(=O)N[C@@H](CCC(=O)NCCCCCNC(=O)CN2CCN(CC(=O)O)CCN(CC(=O)O)CCN(CC(=O)O)CC2)C(=O)O)NC(=O)[C@H](Cc2ccccc2)NC(=O)[C@H](CCC(N)=O)NC(=O)[C@H]([C@@H](C)O)NC(=O)C2CCCN2C(=O)C2CN(C2)C1=O (stereo partly drawn) [JHDC28, nBu-urea-[Cys(3MeBn)-hhy39-Pro-Thr-Gln-Phe-Cys]-Glu-(PDA-DOTA)-OH] ({NHBu-CO}-C[Azetidine3carboxylic][ξP]TQF[ξC]E(NH(CH2)5NHDOTA)-OH; linker 1-7 via mXylylene)
Kd (FAP protein): 10 to 100 nM

CCCCCC(=O)N[C@H]1CCCCn2cc(nn2)CSC[C@@H](C(=O)N[C@@H](CCCCNC(=O)COCCNC(=O)CN2CCN(CC(=O)O)CCN(CC(=O)O)CCN(CC(=O)O)CC2)C(=O)O)NC(=O)[C@H](Cc2ccccc2)NC(=O)[C@H](CCC(N)=O)NC(=O)[C@H]([C@@H](C)O)NC(=O)[C@@H]2CCCN2C(=O)C2CN(C2)C1=O (single isomer, unassigned) [^177Lu -JHDC12, metal not drawn]
logP [1]: -3.81
